Results from patent publication US20240166641A1, “HETEROCYCLES AND USES THEREOF” (Kumquat Biosciences Inc., priority 2021, published 2024).

Tests used:
[1] = tested on: B16F10 mouse melanoma cells; assay: MHC expression associated with IFNγ signaling, flow cytometry; format: cell-based; details: B16-F10, 3 uM compound, 48 hours, normalized to DMSO/with IFNγ control, read-out: % MHC in cells treated with Compound at 3 uM relative to negative control (DMSO)
Description: B16F10 mouse melanoma cells (ATCC Cat #CRL-6475, Manassas, VA) are seeded at approximately a density of 500 cells per well in a 384-well clear bottom plate (Corning Cat #3765, Corning, 5 NY) in 25 μL total volume of DMEM+10% FBS (Sigma Cat #D6429 and Sigma Cat #F4135, St. Louis, MO). Cells are allowed to adhere overnight at 37° C.+5% CO2. On the following day, 12.5 μL of mouse IFNγ (RD systems Cat #485-MI/CF, Minneapolis, MN) is added to half of the plate (columns 13-24) at a concentration of 2 ng/mL for a final assay concentration of 0.5 ng/mL of IFNγ. Media only (12.5 μL of DMEM+10% FBS) is added to the remainder of the 10 plate (columns 1-12). Next, compounds resuspended in DMSO (Sigma Cat #D2650) at 100 mM are diluted in semi-log dilutions in DMSO ranging from 100 mM to 0.001 mM and DMSO only controls are included. The compound/DMSO dilutions are further diluted 1:250 in DMEM+10% FBS, and 12.5 μL of these dilutions are added in triplicates to cells of both treatment arms (with and without IFNγ). Compounds are only dosed in the inner 240 wells, avoiding the outer 2-well perimeter of the plate to minimize edge effects. Finally, the plate is loaded into an IncuCyte® S3 Live Cell Analysis System (Essen Bioscience-Sartorius, Ann Arbor, MI) maintained in a 37° C.+5% CO2 incubator, allowed to equilibrate for 2 hours, and treated for 48 hours. MHC levels are measured by flow cytometry using a FITC anti-mouse H-2kb antibody (clone AF6-88.5), and levels are normalized based on DMSO/with IFNγ control. Table 7 below summarizes the percentage in MHC expression in cells treated with or without compounds disclosed herein at a specified concentration.

PTPN2 = target: T1, PTPN2 (Homo sapiens, UniProt P17706); assay: Phosphatase activity assay (Bio-Biochem-DiFMUP), PTPN2; format: biochemical; details: DiFMUP substrate, room temperature
T1 sequence (P17706 1-415): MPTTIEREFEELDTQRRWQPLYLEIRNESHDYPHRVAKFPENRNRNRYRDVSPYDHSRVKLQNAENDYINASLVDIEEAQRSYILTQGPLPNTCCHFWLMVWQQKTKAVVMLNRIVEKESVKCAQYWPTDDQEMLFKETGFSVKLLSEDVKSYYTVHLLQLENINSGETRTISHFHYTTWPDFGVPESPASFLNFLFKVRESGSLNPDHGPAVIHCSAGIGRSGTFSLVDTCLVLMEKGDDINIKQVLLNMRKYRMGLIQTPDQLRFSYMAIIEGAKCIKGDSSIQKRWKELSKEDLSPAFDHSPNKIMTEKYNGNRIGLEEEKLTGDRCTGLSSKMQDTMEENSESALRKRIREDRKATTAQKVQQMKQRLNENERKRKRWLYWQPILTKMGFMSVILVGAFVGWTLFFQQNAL
Description: (§1) The selectivity and potency of a small molecule PTPN2 inhibitor as provided herein (e.g., a derivative of Formula I, II, III, IV; or sub-formulae thereof) against one or more protein tyrosine phosphatase (PTP) enzymes, and specifically against PTPN2, can be assessed in various ways. The one or more PTP enzymes comprise Mycobacterium protein tyrosine phosphatase A (mPTPA), Mycobacterium protein tyrosine phosphatase B (mPTPB), PTPN1 (i.e., PTP1B), PTPN2 (i.e., TC-PTP), SHP-1, SHP-2, FAP-1, Meg2, HePTP, Laforin, VHX, VHR, LMWPTP, Cdcl4A, LAR, CD45, PTPRG, a fragment thereof, a variant thereof, and a combination thereof. Selectivity and potency of a small molecule PTPN2 inhibitor is evaluated using a PTP activity inhibition assay. The assay is performed using a buffer comprising 50 millimolar (mM) Bis-Tris (pH=6.3), 2 mM EDTA, and 5 mM N,N′-dimethyl-N,N′-bis(mercaptoacetyl)hydrazine (DMH). The assay is performed using a phosphated substrate, e.g., 10 mM fluorescein diphosphate (FDP) that is stored at −20° C. Alternatively or in addition to, the assay is performed using 10 mM DiFMUP as a phosphated substrate. Each PTP enzyme is diluted in an enzyme dilution buffer comprising 50 mM Bis-Tris (pH=6.3), 2 mM EDTA, 5 mM DMH, 20% (vol./vol.) glycerol, and 0.01% (vol./vol.) Triton X-100.
(§2) The assay is carried out at room temperature in 96 well plates. A reaction mixture of 170 microliter (μL) of the assay buffer comprising 10 μM FDP or DiFMIUP is added to each well. A 10 μL volume of (i) a compound disclosed herein (e.g., PTPN2 inhibitor) dissolved in DMSO at one of 10 concentrations from a serial dilution or (ii) DMSO alone for control is added to each well. The reaction is initiated by adding 20 μL of a PTP enzyme (e.g., PTPN2) that is diluted in the enzyme dilution buffer. The phosphatase activity of the PTP enzyme is assessed by monitoring appearance of a fluorescent product (e.g., fluorescein monophosphate (FMP) from FDP, or 6,8-difluoro-7-hydroxyl-4-coumarin (DiFMU) from DiFMUP) continuously for about 15 to 30 minutes, using the SpectraMax® Gemini™ XPS Microplate Spectrofluorometer (Molecular Devices®) with excitation of 440 nm and emission at 530 nm (cutoff filter at 525 nm) for FMP and excitation at 360 nm and emission at 450 nm (cutoff filter at 435 nm) for DiFMU. The rate (e.g., the initial rate) of FMP or DiFMU formation is plotted against the concentration of the small molecule PTPN2 inhibitor, and the data is fitted (e.g., using a 4-parameter equation) to determine the inflection point of the fit as the IC50 of the small molecule PTPN2 inhibitor for a specific enzyme. Table 6 summarizes the IC50 values of compounds disclosed herein against PTPN2 and PTPN1.

PTP1B = target: T2, PTP1B (Homo sapiens, UniProt P18031); assay: Phosphatase activity assay (Bio-Biochem-DiFMUP), PTP1B; format: biochemical; details: DiFMUP substrate, room temperature
T2 sequence (P18031 1-435): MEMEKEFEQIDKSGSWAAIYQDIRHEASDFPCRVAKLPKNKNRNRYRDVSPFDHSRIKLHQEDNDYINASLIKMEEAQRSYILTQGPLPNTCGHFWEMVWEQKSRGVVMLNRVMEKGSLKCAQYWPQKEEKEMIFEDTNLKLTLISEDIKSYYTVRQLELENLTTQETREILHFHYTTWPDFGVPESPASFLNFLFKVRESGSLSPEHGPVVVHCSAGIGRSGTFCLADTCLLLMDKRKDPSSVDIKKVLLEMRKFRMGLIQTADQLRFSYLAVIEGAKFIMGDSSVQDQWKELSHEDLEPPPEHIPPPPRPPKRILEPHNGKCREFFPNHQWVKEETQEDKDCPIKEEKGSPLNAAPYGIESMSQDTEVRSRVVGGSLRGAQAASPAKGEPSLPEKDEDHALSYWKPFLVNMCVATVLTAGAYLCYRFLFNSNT
Description: as §1, §2

mouse C57BL/6 T cells = assay: pSTAT1 signaling in IFNα-stimulated T cells, flow cytometry; format: cell-based; details: T-cell, 10 uM compound, T cells stimulated for 5 hours by IFNα, read-out: % pSTAT1 in cells treated with subject compounds relative to negative control (DMSO)
Description: IFNα signaling in mouse C57BL/6 T cells promotes activation of multiple signaling pathways associated with antitumor responses. A key target of this signaling is phosphorylation of the transcription factor STAT1. […] T cells are stimulated for 5 hours by IFNα in the presence or absence of exemplified compounds disclosed herein (e.g., PTPN2 inhibitors) and stained intracellularly with antibodies for phosphorylated STAT1 and then analyzed by flow cytometry. Enhancement of phosphorylation of STAT1 is read out as a percentage over the DMSO control.

OT-1 cells = assay: T-cell activation: intracellular production of IFNγ and TNFα in exhausted OT-1 cells; format: cell-based; details: 10 uM compound, OT-1 cells restimulated with 1 μM OVA, read-out: % TNFa + /IFNg + production in compound-treated cells (uM compound) relative to negative control (DMSO)
Description: 1*10^6 OT-1 cells are seeded in a 24well in a volume of 1 mL of RPMI/10% FCS, and activated with 10 nM OVA protein for 48 h. Cells are then split 1:4 into 96well plates after two washes in warm media. To induce exhaustion, cells are then expanded for 3 days in the presence of vehicle control or a compound described herein (e.g., PTPN2 inhibitor) various concentrations, as well as 5 ng/ml IL-7 and 5 ng/ml IL-15, with the addition of fresh OVA on each day. After this point, cells are treated with Brefeldin A and restimulated with 1 μM of OVA for 4-6h, and cells are stained to assess production of IFNγ and TNFα intracellularly by flow cytometry. The results are shown as increase in percentage production of IFNγ and TNFα in cells treated with an exemplified compound at 10 uM, relative to a negative control (DMSO) of cells without being treated with the compound but merely DMSO (a solvent in which exemplified compounds are dissolved). See Table 10 below summarizes percentage increase in IFNγ and TNFα intracellular production in cells treated with an exemplified compound (at 10 uM) or without it, relative to a negative control (DMSO).

| SMILES | IC50 (PTPN2) [nM] | IC50 (PTP1B) [nM] | activation at 3 µM [1] [%] | activity at 10 µM (mouse C57BL/6 T cells) [%] | activity at 10 µM (OT-1 cells) [%] |
| --- | --- | --- | --- | --- | --- |
| O=C1CN(c2c(O)cc3ccc(OCC4CCCOC4)nc3c2F)S(=O)(=O)N1 (stereo not shown) [Compound 144] | ≤ 1000 | ≤ 1000 | > 10 |  | 251 |
| O=C1CN(c2c(O)cc3ccc(OCCc4ccccc4)nc3c2F)S(=O)(=O)N1 [Compound 151] | ≤ 1000 | ≤ 1000 | 1 to 10 |  | 227 |
| CC(C)CCNc1cc2cc(N3CC(=O)NS3(=O)=O)c(O)cc2n(C)c1=O [Compound 120] | ≤ 1000 | ≤ 1000 |  |  | 194 |
| CC(C)CCCc1cc2c(F)c(N3CC(=O)NS3(=O)=O)c(O)cc2n(C)c1=O [Compound 190] | ≤ 1000 | ≤ 1000 | 1 to 10 |  |  |
| O=C1CN(c2c(O)cc3ccc(OCCc4ccc(F)cc4)nc3c2F)S(=O)(=O)N1 [Compound 204, 5-(8-fluoro-2-(4-fluorophenethoxy)-6-hydroxyquinolin-7-yl)-1,2,5-thiadiazolidin-3-one 1,1-dioxide] | ≤ 1000 | ≤ 1000 | 1 to 10 |  | 430 |
| CC(C)(C)CCOc1ccc2cc(O)c(N3CC(=O)NS3(=O)=O)cc2n1 [Compound 183] | ≤ 1000 | ≤ 1000 | < 1 |  | 162 |
| CC(C)CCNC(=O)c1cc2c(F)c(N3CC(=O)NS3(=O)=O)c(O)cc2s1 [Compound 130, 5-(1,1-dioxido-4-oxo-1,2,5-thiadiazolidin-2-yl)-4-fluoro-6-hydroxy-N-isopentylbenzo[b]thiophene-2-carboxamide] | ≤ 1000 | ≤ 1000 | > 10 |  |  |
| COC(C)(C)CCOc1ccc2cc(O)c(N3CC(=O)NS3(=O)=O)c(F)c2n1 [Compound 149] | ≤ 1000 | ≤ 1000 | > 10 |  | 207 |

Further lines, with some results ahead:

| IC50 (PTPN2) [nM] | IC50 (PTP1B) [nM] | SMILES | activation at 3 µM [1] [%] | activity at 10 µM (mouse C57BL/6 T cells) [%] | activity at 10 µM (OT-1 cells) [%] |
| --- | --- | --- | --- | --- | --- |
| ≤ 1000 | ≤ 1000 | N#CCCCOc1ccc2cc(O)c(N3CC(=O)NS3(=O)=O)c(F)c2n1 [Compound 155] | > 10 |  |  |
| ≤ 1000 | ≤ 1000 | CC(C)Nc1cc2c(F)c(N3CC(=O)NS3(=O)=O)c(O)cc2n(C)c1=O [Compound 165] |  | 139 |  |
| ≤ 1000 | ≤ 1000 | O=C1CN(c2c(O)cc3ccc(OCC4CCOC4)nc3c2F)S(=O)(=O)N1 (stereo not shown) [Compound 139] | > 10 |  | 226 |
| ≤ 1000 | ≤ 1000 | CC(C)CCNc1ccc2cc(O)c(N3CC(=O)NS3(=O)=O)cc2n1 [Compound 113, 5-(6-hydroxy-2-(isopentylamino)quinolin-7-yl)-1,2,5-thiadiazolidin-3-one 1,1-dioxide] |  |  | 210 |
| ≤ 1000 | ≤ 1000 | O=C1CN(c2c(O)cc3ccc(OCCC4CCCC4)nc3c2F)S(=O)(=O)N1 [Compound 158] | > 10 |  | 152 |
| ≤ 1000 | ≤ 1000 | CC(C)(C)CCOc1ccc2cc(O)c(N3CC(=O)NS3(=O)=O)c(F)c2n1 [Compound 150] |  |  | 260 |
| ≤ 1000 | ≤ 1000 | CC(C)CCNc1cc2c(F)c(N3CC(=O)NS3(=O)=O)c(O)cc2n(C)c1=O [Compound 186] | > 10 |  |  |
| ≤ 1000 | ≤ 1000 | CC(C)Nc1cc2c(F)c(N3CC(=O)NS3(=O)=O)c(O)cc2n(C2CC2)c1=O [Compound 133] |  | 170 |  |
